Experiments:
Amaranthus palmeri = assay: Growth-chamber post-emergence herbicidal assay (Example 2); type: in vivo
Protocol: Herbicidal activity was determined by post-emergence application on 8-day old plants (weeds) of the Amaranthus palmeri and Setaria viridis species that were grown at 16 hours/8 hours day/night cycles at 30° C./25° C., respectively. Leaf stage was typically 4-6 for A. palmeri and 3-4 for S. viridis.
In each treatment, 2-3 pots, each containing about 5 plants each (for Setaria viridis), and one 9-pack, containing about 9 plants (for Amaranthus palmeri), were sprayed using a VL-SET Paasche Airbrush with 0.3-1.5 ml solution containing 0.125-2 mg/ml of a tested compound, which is equivalent to about 125-2000 g/ha.
(§1) Damage assessment: Herbicidal activity was assessed and scored 3-4 days after application by visual inspection of the plants in comparison to plants treated with the formulation alone (with no active ingredient) as control. Activity score is in the range of 0 to 100, where 0 represents no herbicidal activity like control plants and 100 represents the maximal herbicidal activity (i.e., total death of the plant).
Formulation design: Compounds were tested on A. Palmeri in various formulations, and in varying concentrations for each of the tested formulations, in order to determine optimal conditions for its application and performance. Activity scores were determined as described hereinabove. Solubility scores were determined by visual inspection on a scale of 1-10, with 10 representing complete solubilization and 1 represents nullified solubilization.
Each of the obtained solution was then mixed with different adjuvants and applied at a rate equivalent to 500 g/ha for A. palmeri and 1000 g/ha for S. viridis. Herbicidal activity scores 3-4 days after application are presented Table 3 below.

A. palmeri = assay: Greenhouse post-emergence assay (Example 3); type: in vivo, Amaranthus palmeri; settings: 4% TWEEN 20, 0.05 M Tris buffer pH 8, 0.05% Break-Thru
Protocol: Plant seeds were sowed in 9 cm×9 cm×10 cm flowerpots. Timing of sowing (days before treatment application) for each plant is detailed in Table 7 below. 5 flowerpots of each species were used for each treatment. Seeds were sowed in wet clay soil and then covered with about 1 cm layer of dry clay soil.
Irrigation: Irrigation was carried out using VIBRONET-UD (NETAFIM) sprinklers hanging upside down one meter above the flowerpots. Water flow capacity-50 liters per hour. Irrigation was carried out three times a day for 10 minutes.
Treatments: Table 8 presents generally the protocols of the various treatments used in these assays.
57.6 ml of 0.05 M Tris buffer pH=8 were added to 150 mg of Compound 1 and the mixture was stirred using a magnetic stirrer. 2.4 ml of TWEEN®20 were added and the mixture was stirred using a magnetic stirrer to obtain a 4% TWEEN®20-containing solution. 30 μl of Break-Thru were added to obtain a 0.05% Break-Thru-containing solution.
57.6 ml of 0.05 M Tris buffer pH=8 were added to 225 mg of Compound 1 and the mixture was stirred using a magnetic stirrer. 2.4 ml of TWEEN®20 were added and the mixture was stirred using a magnetic stirrer to obtain a 4% TWEEN®20-containing solution. 30 μl of Break-Thru were added to obtain a 0.05% Break-Thru-containing solution.
Plants were sprayed using a DeVreis Generation 4 Research Track Sprayer with a TEE JET nozzle 80015EVS. Spraying volume was 200 L/ha using the following sprayer parameters: • Spray speed-2 KMH • Spray length-1.50 m • Spray pressure-42 PSI
Each plant was sprayed twice, yielding a total spraying volume of 400 L/ha. Nozzle was located 55 cm above pots ground level.
A. palmeri, S. viridis and S. nigrum plants were elevated with 8 cm tray, Z. mays plants were elevated with 3 cm tray in order to achieve a similar spraying height for all plant's foliage.
Plants were scored by visual inspection of symptoms, on a scale of 0-100, where 0 represents no herbicidal activity like control plants and 100 represents the maximal herbicidal activity (i.e., total death of the plant). Each pot was scored separately. DAT=days after treatment

T. vulgare = assay: Growth-chamber post-emergence assay on various weed species (Example 7); type: in vivo; settings: 500 g/ha; 0.8% MIPA, 0.25% Genapol, 1% AGNIQUE, 0.05% Ca-LAS, 0.02% BSU, 0.05% Break-Thru
Protocol: (§2) Herbicidal activity of Compound 1 was determined by post-emergence application on various weed species. 8-14 day old plants (weeds) were grown at 16 hours/8 hours day/night cycles at 30° C./25° C., respectively. Leaf stage was typically 2-6.
(§3) In each treatment, 3 pots (either 7×7 or 8×12 cm), containing about 3-6 plants each, were sprayed using a VL-SET Paasche Airbrush with a 1-1.5 ml-solution containing 0.5-1.5 mg/ml of the tested compound, which is equivalent to about 500-1500 g/ha.
as §1

D. ferox = assay: as above; type: in vivo; settings: 1500 g/ha; 0.8% MIPA, 0.25% Genapol, 2% HASTEN, 0.05% Break-Thru
Protocol: as §2, §3, §1

A. retroflexus = assay: as above; type: in vivo; settings: 500 g/ha; 0.8% MIPA, 0.25% Genapol, 1% AGNIQUE, 0.05% Ca-LAS, 0.02% BSU, 0.05% Break-Thru
Protocol: as §2, §3, §1

S. alba = assay: as above; type: in vivo; settings: 500 g/ha; 0.8% MIPA, 0.25% Genapol, 1% AGNIQUE, 0.05% Ca-LAS, 0.02% BSU, 0.05% Break-Thru
Protocol: as §2, §3, §1

Sensitive A. rudis = assay: Net-house assay with resistant weeds (Example 9); type: in vivo, Amaranthus rudis; settings: 1,500 g/ha, 13 days after application, scale 0-100
Protocol: Herbicidal activity of Compound 1 was determined by post-emergence application in both Growth-chamber and Net-house conditions. Growing conditions were as described in Examples 6 and 8 above.
The assay was performed on 13-15 day old plants (weeds) of Amaranthus rudis that were either target-site resistant or sensitive to HRAC class 5. In each treatment, 3 pots (8×12 cm), containing about 6 Amaranthus Rudis plants, were sprayed using a VL-SET Paasche Airbrush with a 1 ml-solution.
Damage assessment: Herbicidal activity was assessed and scored 13 days after application by visual inspection of the plants in comparison to plants treated with the formulation alone (with no active ingredient) as control. Activity score is in the range of 0 to 100, where 0 represents no herbicidal activity like control plants and 100 represents the maximal herbicidal activity (i.e., total death of the plant).

Question: What does the source list for `O=C(O)c1cc(O)c2c(c1)C(=O)c1cccc(O)c1C2=O` [Compound 1, Rhein]?
Answer: Herbicidal activity score (Amaranthus palmeri; 500 g/ha, 0.5 mg/ml in 0.007% Ammonium hydroxide, 0.25% Adsee, 3-4 days after application): 30; Herbicidal activity score (Amaranthus palmeri; 500 g/ha, 0.5 mg/ml in 0.007% Ammonium hydroxide, 0.25% Genapol X-080, 3-4 days after application): 50; Herbicidal activity score (Amaranthus palmeri; 500 g/ha, 0.5 mg/ml in 0.007% Ammonium hydroxide, 0.7% Sodium Lauryl Ether sulfate, 3-4 days after application): 85; Herbicidal activity score (Amaranthus palmeri; 500 g/ha, 0.5 mg/ml in 0.007% Ammonium hydroxide, 1% AGNIQUE, 0.05% Ca-LAS, 0.02% BSU, 3-4 days after application): 70; Herbicidal activity score (Amaranthus palmeri; 500 g/ha, 0.5 mg/ml in 0.007% Ammonium hydroxide, 2% Tween 20, 3-4 days after application, scale 0-100): 60; Herbicidal activity score (Amaranthus palmeri; 500 g/ha, 0.5 mg/ml in 0.019% MIPA, 0.25% Adsee, 3-4 days after application): 80; Herbicidal activity score (Amaranthus palmeri; 500 g/ha, 0.5 mg/ml in 0.019% MIPA, 0.25% Genapol X-080, 3-4 days after application): 70; Herbicidal activity score (Amaranthus palmeri; 500 g/ha, 0.5 mg/ml in 0.019% MIPA, 0.7% Sodium Lauryl Ether sulfate, 3-4 days after application): 90; Herbicidal activity score (Amaranthus palmeri; 500 g/ha, 0.5 mg/ml in 0.019% MIPA, 1% AGNIQUE, 0.05% Ca-LAS, 0.02% BSU, 3-4 days after application): 80; Herbicidal activity score (Amaranthus palmeri; 500 g/ha, 0.5 mg/ml in 0.019% MIPA, 2% Tween 20, 3-4 days after application): 95; Activity Score (Amaranthus palmeri; 500 g/ha, 2% TWEEN 20, 5 mM MIPA, 1% AGNIQUE, 0.05% Ca-LAS, 0.02% BSU, 0.05% Break-Thru): 95; Activity Score (Amaranthus palmeri; 1000 g/ha, 1% TWEEN 80, 0.05M Tris buffer pH 8, 0.05% Break-Thru, 3-4 days after application, scale 0-100): 100; Activity Score (Amaranthus palmeri; 1500 g/ha, 4% TWEEN 20, 0.05M Tris buffer pH 8, 0.05% Break-Thru): 95; Activity Score (Amaranthus palmeri; 2000 g/ha, 1% TWEEN 80, 0.05M Tris buffer pH 8, 0.05% Break-Thru): 95; Score by visual inspection of symptoms (average ± standard deviation, 5 pots) (A. palmeri; 1000 g/ha (2.5 mg/ml, 400 L/ha), 1 DAT, scale 0-100): 22 ± 13; Score by visual inspection of symptoms (average ± standard deviation, 5 pots) (A. palmeri; 1000 g/ha (2.5 mg/ml, 400 L/ha), 3 DAT): 54 ± 11.4; Score by visual inspection of symptoms (average ± standard deviation, 5 pots) (A. palmeri; 1000 g/ha (2.5 mg/ml, 400 L/ha), 6 DAT): 36 ± 8.9; Score by visual inspection of symptoms (average ± standard deviation, 5 pots) (A. palmeri; 1000 g/ha (2.5 mg/ml, 400 L/ha), 8 DAT): 34 ± 11.4; Score by visual inspection of symptoms (average ± standard deviation, 5 pots) (A. palmeri; 1000 g/ha (2.5 mg/ml, 400 L/ha), 15 DAT): 20 ± 15.8; Score by visual inspection of symptoms (average ± standard deviation, 5 pots) (A. palmeri; 1500 g/ha (3.75 mg/ml, 400 L/ha), 1 DAT): 38 ± 29.5; Score by visual inspection of symptoms (average ± standard deviation, 5 pots) (A. palmeri; 1500 g/ha (3.75 mg/ml, 400 L/ha), 3 DAT): 90 ± 9.4; Score by visual inspection of symptoms (average ± standard deviation, 5 pots) (A. palmeri; 1500 g/ha (3.75 mg/ml, 400 L/ha), 6 DAT): 87 ± 9.7; Score by visual inspection of symptoms (average ± standard deviation, 5 pots) (A. palmeri; 1500 g/ha (3.75 mg/ml, 400 L/ha), 8 DAT): 83 ± 14; Score by visual inspection of symptoms (average ± standard deviation, 5 pots) (A. palmeri; 1500 g/ha (3.75 mg/ml, 400 L/ha), 15 DAT): 66 ± 29.7; Herbicidal activity score (T. vulgare): 10; Herbicidal activity score (D. ferox): 95; Herbicidal activity score (A. retroflexus): 85; Herbicidal activity score (S. alba): 80; Herbicidal activity score (Sensitive A. rudis): 100

— patent publication US20240358015A1, “HERBICIDAL COMPOSITIONS” (Agrematch Ltd., priority 2021, published 2024)
